The compounds below were run on Daudi cells (AID positive) (assay: Compound primary screening: cell death in AID positive Daudi cells (Cell-Titer Glo, Day 7)). Details: Homo sapiens, 168 h; Daudi cells, AID positive; cell death on Day 7, Cell-Titer Glo; read-out: Cellular activity in AID + (Daudi).
Assay type: cell-based
Summary of the method: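 AID-positive Daudi cells were seeded at 1250 cells per well and treated with serially diluted compound delivered from a DMSO/media master plate. Cultures were incubated at 37 °C, and cell death was measured on Day 7 with Cell-Titer Glo luminescence.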

Structure (SMILES) | EC50 [nM]
CC(C)OC(=O)N[C@H]1CC[C@H](c2ncc(-c3ccc(Nc4ncc[nH]4)cc3S(=O)(=O)N(C)C)s2)CC1 [Compound 91, isopropyl trans-N-[4-[5-[2-(dimethylsulfamoyl)-4-(1H-imidazol-2-ylamino)phenyl]thiazol-2-yl]cyclohexyl]carbamate] | 100 to 1000
CCNS(=O)(=O)c1cc(Nc2ccc(Cl)nn2)ccc1-c1cnc([C@H]2CC[C@H](NC(=O)OC(C)C)CC2)s1 [Compound 159, isopropyl trans-N-[4-[5-[4-[(6-chloropyridazin-3-yl)amino]-2-(ethylsulfamoyl)phenyl]thiazol-2-yl]cyclohexyl]carbamate] | < 100
CCNS(=O)(=O)c1cc(Nc2ncc[nH]2)ccc1-c1cnc([C@H]2CC[C@H](NC(=O)OC(C)C)CC2)s1 [Compound 56, isopropyl trans-N-[4-[5-[2-(ethylsulfamoyl)-4-(1H-imidazol-2-ylamino)phenyl]thiazol-2-yl]cyclohexyl]carbamate] | < 100
CCNS(=O)(=O)c1cc(NC2CNC2)ccc1-c1cnc([C@H]2CC[C@H](NC(=O)OC(C)C)CC2)s1 [Compound 144, isopropyl trans-N-[4-[5-[4-(azetidin-3-ylamino)-2-(ethyl-sulfamoyl)phenyl]thiazol-2-yl]cyclohexyl]carbamate] | 100 to 1000
CCNS(=O)(=O)c1cc(CNc2ncc[nH]2)ccc1-c1cnc([C@H]2CC[C@H](NC(=O)OC(C)C)CC2)s1 [Compound 73, isopropyl trans-N-[4-[5-[2-(ethylsulfamoyl)-4-[(1H-imidazol-2-ylamino)methyl]phenyl]thiazol-2-yl]cyclohexyl]carbamate] | 1000 to 10000
CC(C)OC(=O)N[C@H]1CC[C@H](c2ncc(-c3ccc(Nc4ncc[nH]4)cc3S(=O)(=O)N3CCCC3)s2)CC1 [Compound 92, isopropyl trans-N-[4-[5-[4-(1H-imidazol-2-ylamino)-2-pyrrolidin-1-ylsulfonyl-phenyl]thiazol-2-yl]cyclohexyl]carbamate] | 100 to 1000
CCNS(=O)(=O)c1cc(Nc2cn(C(C)C)cn2)ccc1-c1cnc([C@H]2CC[C@H](NC(=O)OC(C)C)CC2)s1 [Compound 139, isopropyl trans-N-[4-[5-[2-(ethylsulfamoyl)-4-[(1-isopropyl-1H-imidazol-4-yl)amino]phenyl]thiazol-2-yl]cyclohexyl]carbamate] | < 100
CCNS(=O)(=O)c1cc(Nc2cnc(C(C)C)cn2)ccc1-c1cnc([C@H]2CC[C@H](NC(=O)OC(C)C)CC2)s1 [Compound 163, isopropyl trans-N-[4-[5-[2-(ethylsulfamoyl)-4-[(5-isopropylpyrazin-2-yl)amino]phenyl]thiazol-2-yl]cyclohexyl]carbamate] | 100 to 1000
CC(C)OC(=O)N[C@H]1CC[C@H](c2ncc(-c3ccccc3S(=O)(=O)NC(C)(C)C)s2)CC1 [Compound 46, isopropyl (trans-4-(5-(2-(N-(tert-butyl)sulfamoyl)phenyl)thiazol-2-yl)cyclohexyl)carbamate] | 1000 to 10000
CC(C)OC(=O)N[C@H]1CC[C@H](c2ncc(-c3ccc(CC(=O)NCc4ccccc4)cc3S(=O)(=O)NC(C)(C)C)s2)CC1 [Compound 97, isopropyl trans-N-[4-[5-[4-[2-(benzylamino)-2-oxo-ethyl]-2-(tert-butylsulfamoyl)phenyl]thiazol-2-yl]cyclohexyl]carbamate] | < 100
CCNS(=O)(=O)c1cc(N(C)c2ncc[nH]2)ccc1-c1cnc([C@H]2CC[C@H](NC(=O)OC(C)C)CC2)s1 [Compound 150, isopropyl trans-N-[4-[5-[2-(ethylsulfamoyl)-4-[1H-imidazol-2-yl(methyl)amino]phenyl]thiazol-2-yl]cyclohexyl]carbamate] | 100 to 1000
CCNS(=O)(=O)c1cc(Nc2ccnn2C(C)C)ccc1-c1cnc([C@H]2CC[C@H](NC(=O)OC(C)(C)C)CC2)s1 [Compound 170, tert-butyl trans-N-[4-[5-[2-(ethylsulfamoyl)-4-[(2-isopropylpyrazol-3-yl)amino]phenyl]thiazol-2-yl]cyclohexyl]carbamate] | 100 to 1000
CC(C)OC(=O)N[C@H]1CC[C@H](c2ncc(-c3ccc(-c4ccnc(C(F)(F)F)c4)cc3S(=O)(=O)NC(C)(C)C)s2)CC1 [Compound 22, isopropyl (trans-4-(5-(2-(N-(tert-butyl)sulfamoyl)-4-(2-(trifluoromethyl)pyridin-4-yl)phenyl)thiazol-2-yl)cyclohexyl)carbamate] | 1000 to 10000
CC(C)OC(=O)N[C@H]1CC[C@@H](c2ncc(-c3ccc(Nc4ncc[nH]4)cc3S(=O)(=O)NC(C)(C)C)s2)CC1 [Compound 110, isopropyl cis-N-[4-[5-[2-(tert-butylsulfamoyl)-4-(1H-imidazol-2-ylamino)phenyl]thiazol-2-yl]cyclohexyl]carbamate] | 100 to 1000
CCNS(=O)(=O)c1cc(Nc2ncc(C(C)C)[nH]2)ccc1-c1cnc([C@H]2CC[C@H](NC(=O)OC(C)C)CC2)s1 [Compound 142, isopropyl trans-N-[4-[5-[2-(ethylsulfamoyl)-4-[(5-isopropyl-1H-imidazol-2-yl)amino]phenyl]thiazol-2-yl]cyclohexyl]carbamate] | 1000 to 10000
CCNS(=O)(=O)c1cc(CC(=O)NC(C)C)ccc1-c1cnc([C@H]2CC[C@H](NC(=O)OC3COC3)CC2)s1 [Compound 59, oxetan-3-yl (trans-4-(5-(2-(N-ethylsulfamoyl)-4-(2-(isopropylamino)-2-oxoethyl)phenyl)thiazol-2-yl)cyclohexyl)carbamate] | 100 to 1000
CCNS(=O)(=O)c1cc(CC(=O)OC)ccc1-c1cnc([C@H]2CC[C@H](NC(=O)OC(C)C)CC2)s1 [Compound 76, methyl trans-2-[3-(ethylsulfamoyl)-4-[2-[4-(isopropoxycarbonylamino)cyclohexyl]thiazol-5-yl]phenyl]acetate] | 1000 to 10000
CCNS(=O)(=O)c1cc(C(N)=O)ccc1-c1cnc([C@H]2CC[C@H](NC(=O)OC3COC3)CC2)s1 [Compound 67, oxetan-3-yl trans-N-[4-[5-[4-carbamoyl-2-(ethylsulfamoyl)phenyl]thiazol-2-yl]cyclohexyl]carbamate] | 1000 to 10000
CC(C)OC(=O)N[C@H]1CC[C@H](c2ncc(-c3ccc(-c4cnn5ccccc45)cc3S(=O)(=O)NC(C)(C)C)s2)CC1 [Compound 3, isopropyl (trans-4-(5-(2-(N-(tert-butyl)sulfamoyl)-4-(pyrazolo[1,5-a]pyridin-3-yl)phenyl)thiazol-2-yl)cyclohexyl)carbamate] | 100 to 1000
CC(C)OC(=O)N[C@H]1CC[C@H](c2ncc(-c3ccc(O)cc3S(N)(=O)=O)s2)CC1 [Compound 24, isopropyl (trans-4-(5-(4-hydroxy-2-sulfamoylphenyl)thiazol-2-yl)cyclohexyl)carbamate] | 100 to 1000
CC(C)OC(=O)N[C@H]1CC[C@H](c2ncc(-c3ccc(Nc4ncco4)cc3S(=O)(=O)NC(C)(C)C)s2)CC1 [Compound 42, isopropyl (trans-4-(5-(2-(N-(tert-butyl)sulfamoyl)-4-(oxazol-2-ylamino)phenyl)thiazol-2-yl)cyclohexyl)carbamate] | < 100
CCNS(=O)(=O)c1cc(Nc2cc(C(C)C)ncn2)ccc1-c1cnc([C@H]2CC[C@H](NC(=O)OC(C)C)CC2)s1 [Compound 171, isopropyl trans-N-[4-[5-[2-(ethylsulfamoyl)-4-[(6-isopropylpyrimidin-4-yl)amino]phenyl]thiazol-2-yl]cyclohexyl]carbamate] | 100 to 1000
